Structures can show the parent of a compound that is named as a salt. Where two headings read alike, the source gives them in different places.
Columns and labels:
blood glucose = test: Hypoglycaemic activity: reduction in area under blood glucose curve after glucose load; assay type: in vivo, Female CFLP mice; conditions: Mus musculus, read-out: % Reduction in area under Blood Glucose Curve
Description: Female CFLP mice, weighing approximately 25 g, were fasted for 24 hours prior to the study. The compounds under study were administered orally as an aqueous solution to each of 6 mice. 30 minutes later a blood sample (10 μl) was obtained from the tail for the analysis of blood glucose. Immediately after taking this blood sample, glucose (1 g/Kg body weight) was administered subcutaneously to each mouse. 6 mice were given water as a control. Blood samples were then obtained from each mouse at 30 minute intervals for 120 minutes.
Compounds that produced a significant (P<0.05) reduction of blood glucose, compared with control mice given water, at any time interval, were considered active. The area under the blood glucose curve over the 2 hour period after the administration of the glucose was calculated for each compound and compared with the value for control animals.

[1] = Effect on energy expenditure of mice; assay type: in vivo, Female CFLP mice; conditions: Mus musculus; for response vs control in vivo at 8.5 mg/kg: 8.5 mg/kg po; for response vs control in vivo at 24.2 mg/kg: 24.2 mg/kg po; for response vs control in vivo at 22.8 mg/kg: 22.8 mg/kg po; for response vs control in vivo at 22.1 mg/kg: 22.1 mg/kg po
Description: Female CFLP mice, each weighing approximately 24 g were given food and water ad lib before and during the experiment. The compounds were dissolved in water by addition of one mole of hydrochloric acid per mole of compound and these solutions were administered orally to each of 12 mice. A further 12 mice were dosed orally with water. The mice were placed in boxes through which air was drawn and the oxygen content of the air leaving the boxes was measured. The energy expenditure of the mice was calculated for 21 hours after dosing from the volume of air leaving the boxes and its oxygen content, following the principles described by J. B. de V. Weir, J. Physiol. (London), 109, 1-9 (1949).

[2] = 25 μmol/Kg oral, 2 h after glucose 1 g/Kg s.c., vs control
[3] = po, 21 h, read-out: Mean Energy Expenditure (0-21 h)
[4] = po, 3 h, read-out: Mean Energy Expenditure (0-3 h)
[5] = 2.5 μmol/Kg oral, 2 h after glucose 1 g/Kg s.c., vs control
[6] = 0-3 h, read-out: Mean Energy Expenditure (0-3 h)
[7] = 0-21 h, read-out: Mean Energy Expenditure (0-21 h)
[8] = 12.5 μmol/Kg oral, 2 h after glucose 1 g/Kg s.c., vs control

CCOC(CNC(C)Cc1ccc(C(=O)NC)cc1)c1cccc(Cl)c1 (stereo not drawn) [Example 34, N-[2-(4-N'-Methylcarboxamidophenyl)-1-methylethyl]-2-ethoxy-2-(3-chlorophenyl)ethanamine hydrochloride]
inhibition in vivo at 25 µmol/kg (blood glucose; [2]): 34%
response vs control in vivo at 20.6 mg/kg [1, 3]: 116%
response vs control in vivo at 20.6 mg/kg ([1]; 20.6 mg/kg po, 0-3 h, read-out: Mean Energy Expenditure (0-3 h)): 148%

CCOC(CNC(C)Cc1ccc(OCCNC)cc1)c1cccc(Cl)c1 (stereo not drawn) [Example 18, N-[2-(4-(2-Methylaminoethoxy)phenyl)-1-methylethyl]-2-ethoxy-2-(3-chlorophenyl)ethanamine dihydrochloride]
inhibition in vivo at 12.5 µmol/kg (blood glucose; po, 2 h): 47.5%
response vs control in vivo at 23.2 mg/kg [1, 4]: 115%
response vs control in vivo at 23.2 mg/kg [1, 3]: 123%

CNCCOc1ccc(CC(C)NCC(OC)c2cccc(Br)c2)cc1 (stereo not drawn) [Example 17, N-[2-(4-Methylaminoethoxy)phenyl)-1-methylethyl]-2-methoxy-2-(3-bromophenyl)ethanamine dihydrochloride]
inhibition in vivo at 2.5 µmol/kg (blood glucose; [5]): 25%
response vs control in vivo at 24.7 mg/kg [1, 4]: 142%
response vs control in vivo at 24.7 mg/kg [1, 3]: 130%

CNCCOc1ccc(C[C@@H](C)NC[C@H](OC)c2ccccc2)cc1 [Example 59, N-[2-(4-(2-Methylaminoethoxy)phenyl)-1-(R)-1-methylethyl]-2-(R)-2-methoxy-2-phenylethanamine dihydrochloride hemihydrate]
inhibition in vivo at 25 µmol/kg (blood glucose; [2]): 36%
response vs control in vivo at 8.5 mg/kg [1, 6]: 148%
response vs control in vivo at 8.5 mg/kg [1, 7]: 111%

CNC(=O)COc1ccc(CC(C)NCC(COc2ccccc2)OC)cc1 (stereo not drawn) [Example 52, N-[2-(4-Methylaminocarbonylmethoxyphenyl)-1-methylethyl]-2-methoxy-3-phenoxypropanamine hydrochloride]
inhibition in vivo at 12.5 µmol/kg (blood glucose; po, 2 h): 35%
response vs control in vivo at 21.1 mg/kg [1, 4]: 130%
response vs control in vivo at 21.1 mg/kg [1, 3]: 113%

COC(=O)/C=C/c1ccc(CC(C)NCC(OC)c2cccc(Cl)c2)cc1 (stereo not drawn) [Example 47, N-[2-(4-{[E]-2-Carbomethoxyethenyl}phenyl)-1-methylethyl]-2-methoxy-2-(3-chlorophenyl)ethanamine hydrochloride]
inhibition in vivo at 12.5 µmol/kg (blood glucose; po, 2 h): 41%
response vs control in vivo at 21.3 mg/kg [1, 4]: 130%
response vs control in vivo at 21.3 mg/kg [1, 3]: 109%

COC(CNC(C)Cc1ccc(OCCN(C)C)cc1)c1cccc(Cl)c1 (stereo not drawn) [Example 23, N-[2-(4-(2-Dimethylaminoethoxy)phenyl)-1-methylethyl]-2-methoxy-2-(3-chlorophenyl)ethanamine dihydrochloride hemihydrate]
inhibition in vivo at 2.5 µmol/kg (blood glucose; [5]): 35%
response vs control in vivo at 23.7 mg/kg [1, 3]: 130%
response vs control in vivo at 23.7 mg/kg ([1]; 23.7 mg/kg po, 0-3 h, read-out: Mean Energy Expenditure (0-3 h)): 163%

COC(CNC(C)Cc1ccc(OCCOc2ccccc2)cc1)c1cccc(Cl)c1 (stereo not drawn) [Example 57, N-[2-(4-(2-Phenoxyethoxy)phenyl)-1-methylethyl]-2-methoxy-2-(3-chlorophenyl)ethanamine hydrochloride]
inhibition in vivo at 2.5 µmol/kg (blood glucose; po, 2 h): 28%
response vs control in vivo at 23.8 mg/kg [1, 4]: 178%
response vs control in vivo at 23.8 mg/kg [1, 3]: 123%

COC(CNC(C)Cc1ccc(OCCN)cc1)c1cccc(Cl)c1 (stereo not drawn) [Example 24, N-[2-(4-(2-Aminoethoxy)phenyl)-1-methylethyl]-2-methoxy-2-(3-chlorophenyl)ethanamine dihydrochloride hemihydrate]
inhibition in vivo at 12.5 µmol/kg (blood glucose; [8]): 51%
response vs control in vivo at 22.3 mg/kg [1, 3]: 128%
response vs control in vivo at 22.3 mg/kg ([1]; 22.3 mg/kg po, 0-3 h, read-out: Mean Energy Expenditure (0-3 h)): 147%

COc1ccc(CC(C)NCC(OC)c2cccc(Cl)c2)cc1 (stereo not drawn) [Example 38, N-[2-(4-Methoxyphenyl)-1-methylethyl]-2-methoxy-2-(3-chlorophenyl)ethanamine hydrochloride]
inhibition in vivo at 25 µmol/kg (blood glucose; po, 2 h): 38%

COC(=O)COc1ccc(C[C@@H](C)NC[C@H](OC)c2cccc(Cl)c2)cc1 (relative stereo) [Example 60, N-[2-(4-Carbomethoxymethoxyphenyl)-1-methylethyl]-2-methoxy-2-(3-chlorophenyl)ethanamine hydrochloride(RR,SS)diasteroisomer]
inhibition in vivo at 0.5 µmol/kg (blood glucose; 0.5 μmol/Kg oral, 2 h after glucose 1 g/Kg s.c., vs control): 30.5%
response vs control in vivo at 8.6 mg/kg [1, 3]: 115%
response vs control in vivo at 8.6 mg/kg ([1]; 8.6 mg/kg po, 0-3 h, read-out: Mean Energy Expenditure (0-3 h)): 131%

COC(CNC(C)Cc1ccc(OCCO)cc1)c1cccc(Cl)c1 (stereo not drawn) [Example 48, N-[2-{4-(2-Hydroxyethoxy)phenyl}-1-methylethyl]-2-methoxy-2-(3-chlorophenyl)ethanamine hydrobromide]
inhibition in vivo at 0.5 µmol/kg (blood glucose; po, 2 h): 31%
response vs control in vivo at 22.2 mg/kg [1, 4]: 128%
response vs control in vivo at 22.2 mg/kg [1, 3]: 131%

CCCCOC(CNC(C)Cc1ccc(OCC(=O)NC)cc1)c1cccc(Cl)c1 (stereo not drawn) [Example 43, N-[2-(4-Methylaminocarbonylmethoxyphenyl)-1-methylethyl]-2-^n butoxy-2-(3-chlorophenyl)ethanamine hydrochloride hemihydrate]
inhibition in vivo at 2.5 µmol/kg (blood glucose; [5]): 31%
response vs control in vivo at 24.2 mg/kg [1, 6]: 144%
response vs control in vivo at 24.2 mg/kg [1, 7]: 105%

CNC(=O)c1ccc(CC(C)NCC(OC)c2cccc(Cl)c2)cc1 (stereo not drawn) [Example 30, N-[2-(4-N'-Methylcarboxamidophenyl)-1-methylethyl]-2-methoxy-2-(3-chlorophenyl)ethanamine hydrochloride]
inhibition in vivo at 12.5 µmol/kg (blood glucose; [8]): 26.5%
response vs control in vivo at 19.9 mg/kg [1, 3]: 115%
response vs control in vivo at 19.9 mg/kg ([1]; 19.9 mg/kg po, 0-3 h, read-out: Mean Energy Expenditure (0-3 h)): 119%

CNC(=O)COc1ccc(CC(C)NCC(OC)c2ccccc2)cc1 (stereo not drawn) [Example 11, N-[2-(4-Methylaminocarbonylmethoxyphenyl)-1-methylethyl]-2-methoxy-2-phenylethanamine hydrochloride]
inhibition in vivo at 1 µmol/kg (blood glucose; po, 2 h): 42%
response vs control in vivo at 19.6 mg/kg [1, 4]: 139%
response vs control in vivo at 19.6 mg/kg [1, 3]: 118%

CCCOC(CNC(C)Cc1ccc(OCC(=O)OC)cc1)c1cccc(Cl)c1 (stereo not drawn) [Example 25, N-[2-(4-Carbomethoxymethoxyphenyl)-1-methylethyl]-2-^n-propoxy-2-(3-chlorophenyl)ethanamine hydrochloride]
inhibition in vivo at 12.5 µmol/kg (blood glucose; [8]): 53.5%
response vs control in vivo at 22.8 mg/kg [1, 6]: 137%
response vs control in vivo at 22.8 mg/kg [1, 7]: 105%

COC(=O)COc1ccc(CC(C)NCC(OC)c2cc3ccccc3o2)cc1 (stereo not drawn) [Example 36, N-[2-(4-Carbomethoxymethoxyphenyl)-1-methylethyl]-2-methoxy-2-(2-benzofuranyl)ethanamine hydrochloride]
inhibition in vivo at 2.5 µmol/kg (blood glucose; po, 2 h): 30%
response vs control in vivo at 21.6 mg/kg [1, 4]: 131%
response vs control in vivo at 21.6 mg/kg [1, 3]: 104%

CNC(=O)COc1ccc(CC(C)NCC(OC)c2cc3ccccc3o2)cc1 (stereo not drawn) [Example 37, N-[2-(4-Methylaminocarbonylmethoxyphenyl)-1-methylethyl]-2-methoxy-2-(2-benzofuranyl)ethanamine dihydrochloride]
inhibition in vivo at 1 µmol/kg (blood glucose; po, 2 h): 26%
response vs control in vivo at 23.6 mg/kg [1, 4]: 134%
response vs control in vivo at 23.6 mg/kg [1, 3]: 106%

COC(=O)c1ccc(CC(C)NCC(OC)c2ccccc2)cc1 (stereo not drawn) [Example 32, N-[2-(4-Carbomethoxyphenyl)-1-methylethyl]-2-methoxy-2-phenylethanamine hydrochloride hemihydrate]
inhibition in vivo at 12.5 µmol/kg (blood glucose; [8]): 19%

CNC(=O)COc1ccc(CC(C)NCC(OC)c2cccc(F)c2F)cc1 (stereo not drawn) [Example 54, N-[2-(4-Methylaminocarbonylmethoxyphenyl)-1-methylethyl]-2-methoxy-2-(2,3-difluorophenyl)ethanamine dihydrochloride]
inhibition in vivo at 25 µmol/kg (blood glucose; po, 2 h): 40%

COC(=O)COc1ccc(CCC(C)NCC(OC)c2cccc(Cl)c2)cc1 (stereo not drawn) [Example 14, N-[3-(4-Carbomethoxymethoxyphenyl)-1-methylpropyl)-2-methoxy-2-(3-chlorophenyl)ethanamine hydrochloride]
response vs control in vivo at 22.1 mg/kg [1, 6]: 135%
response vs control in vivo at 22.1 mg/kg [1, 7]: 103%

COC(=O)c1ccc(CC(C)NCC(OC)c2cccc(C(F)(F)F)c2)cc1 (stereo not drawn) [Example 45, N-[2-(4-Carbomethoxyphenyl)-1-methylethyl]-2-methoxy-2-(3-trifluoromethylphenyl)ethanamine hydrochloride hemihydrate]
inhibition in vivo at 12.5 µmol/kg (blood glucose; [8]): 38%

From patent US4629737A, “Secondary amines and use in pharmaceutical compositions” (Beecham Group p.l.c., priority 1982, dated 1986)
